According to patent US12059425B2, “Heterocyclic compounds and uses thereof” (Kumquat Biosciences Inc., priority 2022, dated 2024):
pIC50: −log10 of the molar value. Like-named read-outs stand apart in the source and are kept apart here.

How the values were obtained:
[1] = system: SW620 cells; assay: Ras cellular assay, cell proliferation SW620; assay type: cell-based; conditions: Homo sapiens, SW-620
Description: For example, this assay can be also used to assess selective growth inhibition of a mutant Ras protein relative to a wildtype, or relative to a different mutant Ras protein.

[2] = biological target: T1, K-Ras G12D (Homo sapiens, UniProt P01116, G12D); assay: PPI-HTRF assay, K-Ras G12D / SOS1 interaction; assay type: biochemical
T1 construct: made in house; host or cells: E. coli, e.g. BL21 (DE3)
Outline: (§1)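 HTRF readout: 665/620 nm ratio (ex 337 nm) after ≥10 min incubation. Donor anti-GST-Eu(K) sits on GST-K-Ras (WT, G12D, G12V or G12S) and acceptor anti-6His-XL665 on His-hSOS1. Buffer ~5 mM HEPES pH 7.4, ~150 mM NaCl, ~1 mM DTT, 0.05% BSA, 0.0025% Igepal. Duplicate 6-point dilution, 10–0.01 μM, fitted to IC50.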

[3] = biological target: T2, K-Ras G12V (Homo sapiens, UniProt P01116, G12V); assay: PPI-HTRF assay, K-Ras G12V / SOS1 interaction; assay type: biochemical
T2 construct: made in house; host or cells: E. coli, e.g. BL21 (DE3)
Outline: as §1

[4] = system: GP2D cells; assay: Ras cellular assay, cell proliferation GP2D; assay type: cell-based
Outline: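 Growth inhibition read by CellTiter-Glo luminescence roughly 5 days after compound addition, which followed overnight plating of G12D-mutant GP2D cells (e.g., 800 per well). Compounds were tested as a serial dilution (e.g., 9 points, 3-fold), with IC50 fitted by four-parameter model.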

[5] = biological target: T3, wildtype K-Ras (Homo sapiens, UniProt P01116); assay: PPI-HTRF assay, wildtype K-Ras / SOS1 interaction; assay type: biochemical
T3 construct: made in house; host or cells: E. coli, e.g. BL21 (DE3)
Outline: as §1

[6] = biological target: T4, K-Ras G12S (Homo sapiens, UniProt P01116, G12S); assay: PPI-HTRF assay, K-Ras G12S / SOS1 interaction; assay type: biochemical
T4 construct: made in house; host or cells: E. coli, e.g. BL21 (DE3)
Outline: as §1

[7] = system: A549 cells; assay: Ras cellular assay, cell proliferation A549; assay type: cell-based; conditions: Homo sapiens
Outline: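 G12S-mutant A549 cells (800/well) in RPMI-1640 plus 10% heat-inactivated FBS, standard or ultra-low attachment 384-well plates, dosed the day after plating with a 10-point 3-fold series. Viability by CellTiter-Glo luminescence about 6 days later; IC50 from four-parameter fit.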

[8] = HTRF, K-Ras G12D, read-out: PPI-HTRF-5 nM (K-Ras G12D IC50)
[9] = HTRF, K-Ras G12V, read-out: PPI-HTRF-5 nM (K-Ras G12V IC50)
[10] = HTRF, K-Ras wt, read-out: PPI-HTRF-5 nM (K-Ras wt IC50)
[11] = read-out: PPI-HTRF-5 nM (K-Ras G12S IC50)

T2 sequence (P01116 1-188 isoform P01116-2 G12V): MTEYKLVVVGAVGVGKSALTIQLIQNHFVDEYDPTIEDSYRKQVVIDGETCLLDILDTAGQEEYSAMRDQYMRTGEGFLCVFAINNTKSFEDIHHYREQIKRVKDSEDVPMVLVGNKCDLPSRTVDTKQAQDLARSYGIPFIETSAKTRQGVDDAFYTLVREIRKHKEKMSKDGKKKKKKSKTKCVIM
T1 sequence (P01116 1-188 isoform P01116-2 G12D): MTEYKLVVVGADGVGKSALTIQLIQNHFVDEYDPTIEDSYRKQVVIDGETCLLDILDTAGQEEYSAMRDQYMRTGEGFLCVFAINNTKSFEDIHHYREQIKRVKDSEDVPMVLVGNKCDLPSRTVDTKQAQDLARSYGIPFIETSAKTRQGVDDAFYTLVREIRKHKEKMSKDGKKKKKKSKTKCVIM
T4 sequence (P01116 1-188 isoform P01116-2 G12S): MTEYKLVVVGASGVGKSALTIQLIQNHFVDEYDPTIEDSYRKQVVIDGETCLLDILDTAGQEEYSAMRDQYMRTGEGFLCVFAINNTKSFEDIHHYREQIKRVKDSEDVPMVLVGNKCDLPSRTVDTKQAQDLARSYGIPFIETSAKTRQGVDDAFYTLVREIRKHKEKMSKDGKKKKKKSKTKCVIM
T3 sequence (P01116 1-188 isoform P01116-2): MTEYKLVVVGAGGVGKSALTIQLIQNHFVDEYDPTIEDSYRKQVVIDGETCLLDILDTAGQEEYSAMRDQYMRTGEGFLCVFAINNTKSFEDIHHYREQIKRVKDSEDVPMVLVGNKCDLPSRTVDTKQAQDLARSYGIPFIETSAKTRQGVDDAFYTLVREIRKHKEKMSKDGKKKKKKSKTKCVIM

Row | SMILES | pIC50 [1] | pIC50 [2, 8] | pIC50 [3, 9] | pIC50 [4] | pIC50 [5, 10] | pIC50 [6, 11] | pIC50 [7] | pIC50 [2] | pIC50 [3] | pIC50 [5] | pIC50 ([6]; PPI-HTRF-5 nM (K-Ras G12S IC50))
1 | N#Cc1c(N)sc2c(F)ccc(-c3c(Cl)c4c5c(nc(OCC67CCCN6C[C@H](F)C7)nc5c3F)N3CCCC[C@H]3CO4)c12 (stereo partly drawn) [compound 168, 2-amino-4-((5aS)-3-chloro-1-fluoro-12-(((2R,7aS)-2-fluorohexahydro-1H-pyrrolizin-7a-yl)methoxy)-5,5a,6,7,8,9-hexahydropyrido[2′,1′:3,4][1,4]oxazepino[5,6,7-de]quinazolin-2-yl)-7-fluorobenzo[b]thiophene-3-carbonitrile] | > 5.30 | > 5.30 | > 5.30 | > 5.30 | > 5.30 | > 5.30 | > 5.30 |  |  |  | 
2 | N#Cc1c(N)sc2c(F)ccc(-c3c(Cl)c4c5c(nc(OC[C@@]67CCCN6C[C@H](F)C7)nc5c3F)N3CCCNCC3CO4)c12 (stereo partly drawn) [compound 151, 2-amino-4-(12-chloro-10-fluoro-8-(((2R,7aS)-2-fluorotetrahydro-1H-pyrrolizin-7a(5H)-yl)methoxy)-2,3,4,5,14,14a-hexahydro-1H-[1,4]diazepino[2′,1′:3,4][1,4]oxazepino [5,6,7-de]quinazolin-11-yl)-7-fluorobenzo[b]thiophene-3-carbonitrile] | > 5.30 | > 5.30 | > 5.30 | > 5.30 | > 5.30 | > 5.30 | > 5.30 |  |  |  | 
3 | N#Cc1c(N)sc2c(F)ccc(-c3c(Cl)c4c5c(nc(OC[C@@]67CCCN6C[C@H](F)C7)nc5c3F)N3CCCC3CO4)c12 (stereo partly drawn) [compound 137, 2-amino-4-(6-chloro-4-fluoro-2-(((2R,7aS)-2-fluorotetrahydro-1H-pyrrolizin-7a(5H)-yl)methoxy)-8a,9,10,11-tetrahydro-8H-pyrrolo[2′,1′:3,4][1,4]oxazepino[5,6,7-de]quinazolin-5-yl)-7-fluorobenzo[b]thiophene-3-carbonitrile] | > 5.30 | > 5.30 | > 5.30 | > 5.30 | > 5.30 | > 5.30 | > 5.30 |  |  |  | 
4 | CN1c2nc(OC[C@@]34CCCN3C[C@H](F)C4)nc3c(F)c(-c4ccc(F)c5sc(N)c(C#N)c45)c(Cl)c(c23)OC2CN(C(=O)C3N[C@H]3C3CC3)CC21 (stereo partly drawn) [compound 108, 2-amino-4-(6-chloro-9-((3S)-3-cyclopropylaziridine-2-carbonyl)-4-fluoro-2-(((2R,7aS)-2-fluorotetrahydro-1H-pyrrolizin-7a(5H)-yl)methoxy)-11-methyl-7a,8,9,10,10a,11-hexahydropyrrolo[3′,4′:2,3][1,4]oxazepino [5,6,7-de]quinazolin-5-yl)-7-fluorobenzo[b]thiophene-3-carbonitrile] | < 5.30 |  |  | > 5.30 |  |  | < 5.30 | > 5.30 | > 5.30 | > 5.30 | > 5.30
5 | N#Cc1c(N)sc2c(F)ccc(-c3c(Cl)c4c5c(nc(OC[C@@]67CCCN6C[C@H](F)C7)nc5c3F)N3CC[C@H]3CCO4)c12 [compound 207, 2-amino-4-((12aS)-9-chloro-7-fluoro-5-(((2R,7aS)-2-fluorotetrahydro-1H-pyrrolizin-7a(5H)-yl)methoxy)-1,11,12,12a-tetrahydro-2H-azeto[11,2′:5,6][1,5]oxazocino[4,3,2-de]quinazolin-8-yl)-7-fluorobenzo[b]thiophene-3-carbonitrile] | > 5.30 | > 5.30 | > 5.30 | > 5.30 | > 5.30 | > 5.30 | > 5.30 |  |  |  | 
6 | N#Cc1c(N)sc2c(F)ccc(-c3c(Cl)c4c5c(nc(OCC67CCCN6C[C@H](F)C7)nc5c3F)N3CCCC[C@@H]3CO4)c12 (stereo partly drawn) [compound 103, 2-amino-4-((5aR)-3-chloro-1-fluoro-12-(((2R)-2-fluorotetrahydro-1H-pyrrolizin-7a(5H)-yl)methoxy)-5,5a,6,7,8,9-hexahydropyrido[2′,1′:3,4][1,4]oxazepino [5,6,7-de]quinazolin-2-yl)-7-fluorobenzo[b]thiophene-3-carbonitrile] | > 5.30 | > 5.30 | > 5.30 | > 5.30 | > 5.30 | > 5.30 | > 5.30 |  |  |  | 
7 | N#Cc1c(N)sc2c(F)ccc(-c3c(Cl)c4c5c(nc(OC[C@@]67CCCN6C[C@H](F)C7)nc5c3F)N(C3CC3)C3COCC3CO4)c12 (stereo partly drawn) [compound 125, 2-amino-4-(6-chloro-12-cyclopropyl-4-fluoro-2-(((2R,7aS)-2-fluorotetrahydro-1H-pyrrolizin-7a(5H)-yl)methoxy)-8a,9,11a,12-tetrahydro-8H,11H-furo[3′,4′:6,7][1,5]oxazocino[4,3,2-de]quinazolin-5-yl)-7-fluorobenzo[b]thiophene-3-carbonitrile] | > 5.30 | > 5.30 | > 5.30 | > 5.30 | > 5.30 | > 5.30 | > 5.30 |  |  |  | 
8 | N#Cc1c(N)sc2c(F)ccc(-c3c(Cl)c4c5c(nc(OC[C@@]67CCCN6C[C@H](F)C7)nc5c3F)N(CCC3CNC3)C3COCC3CO4)c12 (stereo partly drawn) [compound 171, 2-amino-4-(12-(2-(azetidin-3-yl)ethyl)-6-chloro-4-fluoro-2-(((2R,7aS)-2-fluorotetrahydro-1H-pyrrolizin-7a(5H)-yl)methoxy)-8a,9,11a,12-tetrahydro-8H,11H-furo[3′,4′:6,7][1,5]oxazocino[4,3,2-de]quinazolin-5-yl)-7-fluorobenzo[b]thiophene-3-carbonitrile] | < 5.30 | > 5.30 | > 5.30 | > 5.30 | > 5.30 | > 5.30 | < 5.30 |  |  |  | 
9 | N#Cc1c(N)sc2c(F)ccc(-c3c(Cl)c4c5c(nc(OC[C@@]67CCCN6C[C@H](F)C7)nc5c3F)N3CC[C@@H]3CCO4)c12 [compound 167, 2-amino-4-((12aR)-9-chloro-7-fluoro-5-(((2R,7aS)-2-fluorotetrahydro-1H-pyrrolizin-7a(5H)-yl)methoxy)-1,11,12,12a-tetrahydro-2H-azeto[11,2′:5,6][1,5]oxazocino[4,3,2-de]quinazolin-8-yl)-7-fluorobenzo[b]thiophene-3-carbonitrile] | > 5.30 | > 5.30 | > 5.30 | > 5.30 | > 5.30 | > 5.30 | > 5.30 |  |  |  | 
10 | CN1c2nc(OC[C@@]34CCCN3C[C@H](F)C4)nc3c(F)c(-c4ccc(F)c5sc(N)c(C#N)c45)c(Cl)c(c23)OCC2COCC21 (stereo partly drawn) [compound 141, 2-amino-4-(6-chloro-4-fluoro-2-(((2R,7aS)-2-fluorotetrahydro-1H-pyrrolizin-7a(5H)-yl)methoxy)-12-methyl-8a,9,11a,12-tetrahydro-8H,11H-furo[3′,4′:6,7][1,5]oxazocino[4,3,2-de]quinazolin-5-yl)-7-fluorobenzo[b]thiophene-3-carbonitrile] | > 5.30 | > 5.30 | > 5.30 | > 5.30 | > 5.30 | > 5.30 | > 5.30 |  |  |  | 
11 | COC1CCC2COc3c(Cl)c(-c4ccc(F)c5sc(N)c(C#N)c45)c(F)c4nc(OC[C@@]56CCCN5C[C@H](F)C6)nc(c34)N2C1 (stereo partly drawn) [compound 182, 2-amino-4-(6-chloro-4-fluoro-2-(((2R,7aS)-2-fluorotetrahydro-1H-pyrrolizin-7a(5H)-yl)methoxy)-11-methoxy-8,8a,9,10,11,12-hexahydropyrido[2′,1′:3,4][1,4]oxazepino [5,6,7-de]quinazolin-5-yl)-7-fluorobenzo[b]thiophene-3-carbonitrile] | > 5.30 | > 5.30 | > 5.30 | > 5.30 | > 5.30 | > 5.30 | > 5.30 |  |  |  | 
12 | N#Cc1c(N)sc2c(F)ccc(-c3c(Cl)c4c5c(nc(OCC67CCCN6C[C@H](F)C7)nc5c3F)N3CCC[C@H]3CO4)c12 (stereo partly drawn) [compound 159, 2-amino-4-((12aS)-10-chloro-8-fluoro-6-(((2R)-2-fluorotetrahydro-1H-pyrrolizin-7a(5H)-yl)methoxy)-2,3,12,12a-tetrahydro-1H-pyrrolo[2′,1′:3,4][1,4]oxazepino[5,6,7-de]quinazolin-9-yl)-7-fluorobenzo[b]thiophene-3-carbonitrile] | > 5.30 | > 5.30 | > 5.30 | > 5.30 | > 5.30 | > 5.30 | > 5.30 |  |  |  | 
